The values that follow come from publication PMC8290497, “Taxifolin, an Inhibitor of Sortase A, Interferes With the Adhesion of Methicillin-Resistant Staphylococcal aureus” (Frontiers in Microbiology, 2021).

One experiment addresses T1, S. aureus SrtA (Staphylococcus aureus, UniProt Q2FV99).
T1 construct: 6xHis; made in house; host or cells: E. coli BL21 (DE3), plasmid pET28a-SrtA
The experiment in a line: FRET assay of SrtA transpeptidation (cleavage of Abz-LPATG-Dap(Dnp)-NH2). Type of experiment: biochemical. The method, then: Fluorescence resonant energy transfer (FRET) was used to determine the effect of Tax on SrtA, as described previously ([Kruger et al., 2002]). Briefly, 4 μM purified recombinant SrtA was combined with various concentrations of Tax then added to assay buffer consisting of 50 mM Tris-HCl, 5 mM CaCl2, 150 mM NaCl, at pH 7.5, to a final volume of 200 μL. Following incubation of the mixture at 37°C for 1 h, substrate peptide was added to a final concentration of 10 μM and incubated for an additional 30 min. Fluorescence intensity was measured at excitation and emission wavelengths of 309 and 420 nm, respectively.
(§1) To identify novel inhibitors of SrtA, an in-house library containing 420 natural compounds was screened, using a FRET assay. […] To further clarify the interacting way of SrtA and Tax, recombinant SrtA was reacted with Tax at a concentration of 10-fold IC50. A total of 85.80 ± 0.67% of SrtA activity was subsequently recovered, compared with the control group (DMSO) (Figure 1C).
FIGURE 1 Inhibition of SrtA transpeptidation. (A) Chemical structure of Tax. […] Each reaction condition was assayed in triplicate from which the IC50 was determined. (C) Recombinant SrtA was treated with 10 × IC50 of Tax and then diluted, after which transpeptidation activity was measured using a FRET assay. […]

The test system of experiment [1] is adhesion of S. aureus USA300 to fibrinogen. Description: Fibrinogen binding assay (crystal violet). The settings on record: Staphylococcus aureus, USA300, read-out: inhibition rate of adhesion of bacteria to fibrinogen. Type of experiment: cell-based.
Another experiment deals with T2, SrtA (Staphylococcus aureus, UniProt Q2FV99).
T2 construct: 6xHis; made in house; host or cells: E. coli BL21 (DE3), plasmid pET28a-SrtA
Description: Reversibility of SrtA inhibition (10 × IC50, dilution, FRET assay). Type of experiment: biochemical. The settings on record: SrtA treated with 10-fold IC50 of Tax then diluted; compared with control group (DMSO).
Description: as §1
FIGURE 1 Inhibition of SrtA transpeptidation. (A) Chemical structure of Tax. (B) Tax inhibits SrtA cleavage of a fluorogenic peptide substrate (Abz-LPATG-Dnp-NH2) in a dose-dependent manner in vitro. Each reaction condition was assayed in triplicate from which the IC50 was determined. (C) Recombinant SrtA was treated with 10 × IC50 of Tax and then diluted, after which transpeptidation activity was measured using a FRET assay. Untreated SrtA (Control) represented 100% activity.

Experiment [2] has as its system S. aureus USA300 pneumonia in C57BL/6J mice. Description: Murine model of MRSA-induced pneumonia. Type of experiment: in vivo, mouse. As for the experimental part: To investigate the therapeutic capability of Tax to treat acute pneumonia infection caused by S. aureus USA300, 6- to 8-week-old female C57BL/6J mice were infected intranasally with 2 × 10^8 CFU of S. aureus USA300, then held upright for 30 s to ensure each animal inhaled the bacteria into their lungs. Two h post-infection, the mice were subcutaneously injected with Tax (100 mg/kg). Similarly, mice were challenged with ΔsrtA and sterile PBS containing 0.5% DMSO (control group) as controls. To assess survival, the mice were checked every 12 h for 96 h, and the percentage that had survived was recorded.
For bacterial counts in lung tissue and histopathological examination, mice were infected intranasally with 30 μL (1 × 10^8 CFUs) of S. aureus USA300. Tax (100 mg/kg) was then injected subcutaneously every 12 h after inoculation. The bacterial load in the lungs was determined after the mice in each group were sacrificed 48 h post-infection. The left lung from each animal was removed aseptically and processed to count the bacterial CFUs. The right lung of each mouse was aseptically removed and analyzed by conventional hematoxylin and eosin (H&E) staining using an optical microscope. The ratio of wet to dry lung tissue weight (W/D ratio) was recorded in each case. Wet lung weight was measured 1 min after surface moisture had been removed. Dry lung weight was determined after dehydration at 80°C. The W/D ratio is used to reveal the degree of tissue edema ([Xia et al., 2016]).
FIGURE 6 Effect of treatment with Tax on S. aureus-induced pneumonia in mice. (A) Effect of Tax on the survival of mice (n = 10 per group) infected with a lethal dose of S. aureus. (B) Effect of Tax (100 mg/kg) on bacterial load in the lungs of mice (n = 6). (C) Gross pathological changes and histopathology of mouse lungs treated with Tax (100 mg/kg/d) or untreated. Scale bar: 50 μm. (D) Lung wet-to-dry weight ratio (W/D). Each value represents mean ± SD (n = 5 per group). **P < 0.01, ***P < 0.001; Mann-Whitney test, two-tailed. Horizontal bars represent mean values. Animal data were obtained from two separate experiments.

Another experiment addresses T3, WT-SrtA (Staphylococcus aureus, UniProt Q2FV99).
T3 construct: 6xHis; made in house; host or cells: E. coli BL21 (DE3), plasmid pET28a-SrtA
Description: Fluorescence quenching assay, WT-SrtA. Type of experiment: binding. An excerpt: Molecular modeling studies highlight the benefits of performing site-directed mutagenesis studies. Therefore, fluorescence quenching experiments were utilized to determine the binding affinity of Tax with SrtA and SrtA mutants (D170A, Q172A).

Experiment [3] concerns internalization of S. aureus into A549 cells. Description: Invasion assay of S. aureus into A549 cells. Type of experiment: cell-based, Staphylococcus aureus. The settings on record: 200 μM Tax; P < 0.001. As for the experimental part:
A549 human lung carcinoma cells were seeded at a density of 2.5 × 10^5 per well in 24-well plates and placed in an incubator at 37°C in an atmosphere containing 5% CO2 for 20 h. Cultures of S. aureus were mixed with different concentrations of Tax then cultured at 37°C until an OD600 of 1.0 was achieved. The A549 cells were resuspended in medium and aliquots of bacterial suspension were added to each well to a total concentration of 2 × 10^7°CFU/mL. After incubation for 2 h, the invasion assay was terminated by incubation with 300 μg/mL gentamicin for 30 min. The cells were then lysed after washing and coated on a BHI agar plate. After incubation at 37°C for 12 h, the number of CFUs were counted manually.
FIGURE 3 Effect of SrtA inhibitor on virulence-related phenotypes in S. aureus Newman strain. (A) Impact of Tax on the ability of S. aureus to adhere to fibrinogen. (B) Biofilm formation of S. aureus in the presence of different concentrations of Tax. (C) Mature biofilms of S. aureus in the presence of different concentrations of Tax. The ΔsrtA group represented the positive control. (D) Tax affects internalization of S. aureus into A549 cells. […] The number of viable S. aureus in the cells was quantified by serial dilution on TSA agar plates. […] Error bars represent means ± SD of three replicates. *P < 0.05, **P < 0.01, ***P < 0.001 calculated with a two-tailed Student’s t-test.

Structures are written as SMILES.

Turning to `O=C1c2c(O)cc(O)cc2OC(c2ccc(O)c(O)c2)C1O` (stereo not drawn) [Tax, taxifolin], the IC50 (as a rule, the concentration needed to halve the response being measured) against S. aureus SrtA came to 24.5 ± 0.42 µM. For the same compound, in experiment [1], the inhibition – broadly, how much of the control response was suppressed – at 200 µM is 35.1 ± 0.49%. Further, the SrtA activity recovered on SrtA was found to be 85.80 ± 0.67%. For the same compound, in experiment [2] (Tax 100 mg/kg subcutaneous every 12 h, 48 h post-infection), the “bacterial load in the lungs” value came out at 6.73 ± 0.69 lg CFU/g. For the same compound, in experiment [2] (Tax 100 mg/kg, infected mice, H&E staining), the lung histopathology result is recorded as “significantly reduced inflammation”. The “lung wet-to-dry weight ratio (W/D)” value in experiment [2] (Tax 100 mg/kg, infected mice, P < 0.001) came to 5.35 ± 0.34. Also, the “survival rate of mice” value in experiment [2] (lethal dose S. aureus USA300 intranasal, Tax 100 mg/kg subcutaneous, 96 h, p < 0.01) is reported as 50%. The Kd (commonly a measure of binding affinity in units of concentration) at WT-SrtA was 15.6 µM. Moreover, in experiment [3], the “number of bacteria entering A549 cells” value is given as “reduced significantly”.
